# In ChEMBL document CHEMBL1122122, “Drug latentiation by gamma-glutamyl transpeptidase” (J Med Chem, 1982):
# Residues, ends and D or L forms follow the SMILES beside them.
# Assay: Compound evaluated for drug latentiation activity by determining relative rate of cleavage by gamma-glutamyl transpeptidase
# Assay type: functional
row,Relative activity,Structure (SMILES)
1,4,NC(CCC(=O)N1CCCC1C(=O)O)C(=O)O (stereo not given)
2,5,NC(CCC(=O)N1CSCC1C(=O)O)C(=O)O (stereo not given)
3,100,CSC[C@H](NC(=O)CC[C@H](N)C(=O)O)C(=O)NCC(=O)O
4,95,CCC(NC(=O)CCC(N)C(=O)O)C(=O)O (stereo not given)
5,95,NC(CCC(=O)Nc1ccccc1O)C(=O)O (stereo not given)
6,19,NC(CCC(=O)NC1(C(=O)O)CCCC1)C(=O)O (stereo not given)
7,9,NC(CCC(=O)NCCCC(=O)O)C(=O)O (stereo not given)
8,98,NC(CCC(=O)Nc1ccc(O)cc1)C(=O)O (stereo not given)
9,96,NC(CCC(=O)Nc1cccc(O)c1)C(=O)O (stereo not given)
10,70,NC(=O)CC[C@H](N)C(=O)NCC(=O)O (H-Gln-Gly-OH)
